Measurements published in PubChem BioAssay AID1996.
In brackets after ≈: the same amount, converted by molar mass.

Conditions: buffer; pH 7.4; 200.0 µM

Question: With C[C@H](NC(=O)c1ccco1)C(=O)Nc1cc(S(=O)(=O)N2CCCC2)ccc1OCC(F)(F)F as the compound, how does the solubility kinetic read?
Answer: Its solubility kinetic is over 73.4 µg/mL.

Question: Which solubility kinetic does the source give for COc1ccc(S(=O)(=O)NCc2ccccn2)c(C)c1C here?
Answer: Its solubility kinetic is 32.8 µg/mL (≈ 107 µM).

Question: Which solubility kinetic does the source give for CC(=O)N1CCC(C(=O)NCCOc2cccc(C)c2)CC1 here?
Answer: The solubility kinetic was over 45.7 µg/mL.

Question: With O=[N+]([O-])c1cccc(S(=O)(=O)N2CCN(c3ccccn3)CC2)c1 as the compound, how does the solubility kinetic read?
Answer: Its solubility kinetic is 1.3 µg/mL (≈ 3.73 µM).

Question: For CC(=O)Nc1ccc(NC(=O)CCOc2cc(C)ccc2C)cc1, which solubility kinetic is on record?
Answer: Its solubility kinetic is 2 µg/mL (≈ 6.13 µM).

Question: With Cc1ccc(NC(=O)c2ccc3nccnc3c2)c(C)c1 as the compound, how does the solubility kinetic read?
Answer: The solubility kinetic was over 41.6 µg/mL.

Question: Which solubility kinetic does the source give for O=C(CSc1nc2ccccc2c(=O)n1CCCN1CCOCC1)Nc1ccc(Br)cc1 here?
Answer: Its solubility kinetic is 5.3 µg/mL (≈ 10.2 µM).

Question: For COc1ccccc1OCC(=O)Nc1ccc2c(c1)OCO2, which solubility kinetic is on record?
Answer: The solubility kinetic was 40.9 µg/mL (≈ 136 µM).

Question: With COc1ccc(/C(N)=N/O)c(OC)c1 as the compound, how does the solubility kinetic read?
Answer: The solubility kinetic was over 29.4 µg/mL.

Question: With C=CCOc1cccc(C(=O)NC(c2ccccc2)C(C)C)c1 (stereo unspecified) as the compound, how does the solubility kinetic read?
Answer: Its solubility kinetic is 1.2 µg/mL (≈ 3.88 µM).

Question: For COc1ccccc1NC(=O)NCCN1CCCCC1, which solubility kinetic is on record?
Answer: The solubility kinetic was over 41.6 µg/mL.

Question: Which solubility kinetic does the source give for Cc1ccc(S(=O)(=O)N2CCN(C(=O)N3CCCC3)CC2)cc1 here?
Answer: The solubility kinetic was 48.7 µg/mL (≈ 144 µM).

Question: Which solubility kinetic does the source give for O=C(OCc1cnc(Cl)s1)c1cccs1 here?
Answer: Its solubility kinetic is 26.5 µg/mL (≈ 102 µM).

Question: For Cc1ccc2nc(N3CC(C)OC(C)C3)nc(-c3ccccc3)c2c1 (stereo unspecified), which solubility kinetic is on record?
Answer: Its solubility kinetic is 2.2 µg/mL (≈ 6.6 µM).

Question: With COc1ccc(C2Nc3ccccc3NC3=C2C(=O)CC(C)(C)C3)cc1O (stereo unspecified) as the compound, how does the solubility kinetic read?
Answer: The solubility kinetic was 34.7 µg/mL (≈ 95.2 µM).

Question: Which solubility kinetic does the source give for O=c1c2ccccc2nc(-c2ccco2)n1CCc1ccc(O)cc1 here?
Answer: The solubility kinetic was 7.9 µg/mL (≈ 23.8 µM).

Question: For COc1ccccc1NS(=O)(=O)c1ccc(C)c(C(=O)Nc2cc(C)on2)c1, which solubility kinetic is on record?
Answer: Its solubility kinetic is 22.4 µg/mL (≈ 55.8 µM).

Question: For CC(=O)Nc1ccc(C(=O)OCC(=O)N(c2ccccc2)C2CCCCC2)cc1, which solubility kinetic is on record?
Answer: Its solubility kinetic is 3.8 µg/mL (≈ 9.63 µM).

Question: With O=[N+]([O-])c1ccc(O)c(C(C#Cc2ccccc2)N2CCOCC2)c1 (stereo unspecified) as the compound, how does the solubility kinetic read?
Answer: The solubility kinetic was 12.9 µg/mL (≈ 38.1 µM).

Question: For O=C(c1ccc(Cl)cc1)n1cnc2ccccc21, which solubility kinetic is on record?
Answer: The solubility kinetic was over 38.5 µg/mL.

Question: For COc1ccc(CNC(=O)c2cc3cccc(O)c3oc2=N)cc1, which solubility kinetic is on record?
Answer: Its solubility kinetic is 7.2 µg/mL (≈ 22.2 µM).

Question: With COc1ccc(CN=C(C#N)C2=C(O)c3ccccc3C2=O)cc1 as the compound, how does the solubility kinetic read?
Answer: Its solubility kinetic is 0.8 µg/mL (≈ 2.51 µM).

Question: Which solubility kinetic does the source give for N#Cc1ccc(OCC(=O)Nc2ccc(N3CCCC3)cc2)cc1 here?
Answer: The solubility kinetic was 5.9 µg/mL (≈ 18.4 µM).

Question: Which solubility kinetic does the source give for CCCCNC(=O)N1CCN(c2ccnc3cc(Cl)ccc23)CC1 here?
Answer: Its solubility kinetic is over 52 µg/mL.

Question: With CC(C)(C)C(=O)Nc1cc2c3c(c1)CC(=O)N3CCC2 as the compound, how does the solubility kinetic read?
Answer: The solubility kinetic was 35.9 µg/mL (≈ 132 µM).

Question: With O=C(O)c1cccc(Nc2c([N+](=O)[O-])c(=O)oc3ccccc23)c1 as the compound, how does the solubility kinetic read?
Answer: The solubility kinetic was over 48.9 µg/mL.

Question: For O=C(/C=C/c1ccccc1)Oc1coc(CSc2ncccn2)cc1=O, which solubility kinetic is on record?
Answer: The solubility kinetic was 10.2 µg/mL (≈ 27.8 µM).

Question: Which solubility kinetic does the source give for CC(C)c1ccc(CNC(=O)C(=O)NCC2CCCO2)cc1 (stereo unspecified) here?
Answer: The solubility kinetic was 28.5 µg/mL (≈ 93.6 µM).

Question: For Cc1cc(C(C)(C)C)cc(C)c1CCNC(=O)c1ccc[n+]([O-])c1, which solubility kinetic is on record?
Answer: Its solubility kinetic is over 49 µg/mL.

Question: For COc1cccc(C2NC(=O)CCC2[N+](=O)[O-])c1OC (stereo unspecified), which solubility kinetic is on record?
Answer: Its solubility kinetic is 39.4 µg/mL (≈ 141 µM).

Question: Which solubility kinetic does the source give for O=C(Nc1ccncc1)c1sc2ccccc2c1Cl here?
Answer: The solubility kinetic was 0.8 µg/mL (≈ 2.77 µM).

Question: For CCCC(=O)Nc1sc2c(c1C(=O)OCC)CC(C)(C)OC2, which solubility kinetic is on record?
Answer: The solubility kinetic was 4.6 µg/mL (≈ 14.1 µM).

Question: With C[Se]C[C@@H](N)C(=O)O.Cl as the compound, how does the solubility kinetic read?
Answer: The solubility kinetic was over 32.8 µg/mL.

Question: With COc1ccc(C)cc1C(=O)CCC(=O)NC1CCCCC1 as the compound, how does the solubility kinetic read?
Answer: The solubility kinetic was 21.2 µg/mL (≈ 69.9 µM).

Question: With O=C(N/C(=C\c1ccco1)C(=O)N1CCOCC1)c1ccco1 as the compound, how does the solubility kinetic read?
Answer: The solubility kinetic was over 47.4 µg/mL.

Question: For CCc1ccc(NC(=O)Nc2ccon2)cc1, which solubility kinetic is on record?
Answer: The solubility kinetic was over 34.7 µg/mL.

Question: With CC(C)Cn1c(SCC(=O)N2CCc3ccccc3C2)nc(O)cc1=O as the compound, how does the solubility kinetic read?
Answer: Its solubility kinetic is over 56 µg/mL.

Question: Which solubility kinetic does the source give for CCc1ccc[n+](-c2nc([O-])sc2C=O)c1 here?
Answer: Its solubility kinetic is over 35.1 µg/mL.

Question: For CCCOc1ccc(-c2nc(N3CCN(C)CC3)c3ccccc3n2)cc1, which solubility kinetic is on record?
Answer: The solubility kinetic was 14.5 µg/mL (≈ 40 µM).

Question: Which solubility kinetic does the source give for CC(=O)Nc1ccc2c(c1)nc(C)n2-c1ccccc1 here?
Answer: Its solubility kinetic is over 39.8 µg/mL.

Question: For CSc1ccc(/C=C/C(=O)N2CCN(c3ccccn3)CC2)cc1, which solubility kinetic is on record?
Answer: The solubility kinetic was 2.3 µg/mL (≈ 6.78 µM).

Question: For O=[N+]([O-])c1cccc(OCc2cn3cccnc3n2)c1, which solubility kinetic is on record?
Answer: The solubility kinetic was over 40.5 µg/mL.

Question: With CCc1cc(=O)[nH]c(SC/C=C/c2ccccc2)n1 as the compound, how does the solubility kinetic read?
Answer: The solubility kinetic was 10.7 µg/mL (≈ 39.3 µM).

Question: For Cc1nc2ccccc2n1CC(O)c1ccccc1 (stereo unspecified), which solubility kinetic is on record?
Answer: Its solubility kinetic is 33.9 µg/mL (≈ 134 µM).

Question: Which solubility kinetic does the source give for CC(C)Cn1c(N)c(C(=O)COC(=O)c2cccn2C)c(=O)n(C)c1=O here?
Answer: The solubility kinetic was over 54.4 µg/mL.

Question: Which solubility kinetic does the source give for CC1CCCCN1S(=O)(=O)c1ccc(C(=O)N2CCOCC2)cc1 (stereo unspecified) here?
Answer: Its solubility kinetic is over 52.9 µg/mL.
